Laboratory results published in ChEMBL document CHEMBL4017483, “Potent and selective oxytocin receptor agonists without disulfide bridges” (Bioorg Med Chem Lett, 2017).
Bridge positions count the residues as written; N and C are the ends. Square brackets hold non-standard residues; d marks the D form. Peptide text beside a SMILES is read from it. NMeS = CN[C@@H](CO)C(=O)O; NMeA = CN[C@@H](C)C(=O)O; Mpa = O=C(O)CCS; Sar = CNCC(=O)O

How the values were obtained:
[1] = biological target: T1, Oxytocin receptor (Homo sapiens, UniProt P30559); test: Agonist activity at human OTR expressed in CHO cells assessed as calcium mobilization measured after 30 mins by Fluo-4-AM dye based FLIPR assay; format: functional, cell-based
T1 sequence (P30559 whole entry): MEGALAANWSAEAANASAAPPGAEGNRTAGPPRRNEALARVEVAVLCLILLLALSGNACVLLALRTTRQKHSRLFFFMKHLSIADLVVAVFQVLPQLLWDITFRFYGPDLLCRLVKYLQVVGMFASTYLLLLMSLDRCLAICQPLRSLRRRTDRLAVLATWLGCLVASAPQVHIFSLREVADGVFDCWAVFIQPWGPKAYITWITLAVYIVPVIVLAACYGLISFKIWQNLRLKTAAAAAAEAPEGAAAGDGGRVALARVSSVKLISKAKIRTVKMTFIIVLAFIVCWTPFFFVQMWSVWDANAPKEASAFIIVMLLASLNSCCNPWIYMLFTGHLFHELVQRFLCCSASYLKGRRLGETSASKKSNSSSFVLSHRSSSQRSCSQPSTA

[2] = biological target: Vasopressin V1a receptor (Homo sapiens, UniProt P37288); test: Agonist activity at human V1a receptor expressed in CHO cells assessed as calcium mobilization measured after 30 mins by Fluo-4-AM dye based FLIPR assay; format: cell-based
Sequence of Vasopressin V1a receptor (P37288 whole entry): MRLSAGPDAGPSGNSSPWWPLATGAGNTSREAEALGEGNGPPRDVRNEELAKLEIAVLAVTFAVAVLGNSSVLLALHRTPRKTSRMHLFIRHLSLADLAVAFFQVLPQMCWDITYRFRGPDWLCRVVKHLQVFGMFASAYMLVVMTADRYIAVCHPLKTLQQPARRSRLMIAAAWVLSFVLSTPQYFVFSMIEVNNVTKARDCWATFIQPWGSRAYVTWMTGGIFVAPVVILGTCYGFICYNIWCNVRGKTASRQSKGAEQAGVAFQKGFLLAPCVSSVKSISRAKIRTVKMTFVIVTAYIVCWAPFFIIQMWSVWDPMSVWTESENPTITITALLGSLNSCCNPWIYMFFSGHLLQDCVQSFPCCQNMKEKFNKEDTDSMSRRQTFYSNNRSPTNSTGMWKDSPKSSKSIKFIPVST

[3] = biological target: T2, Vasopressin V1b receptor (Homo sapiens, UniProt P47901); test: Agonist activity at human V1b receptor expressed in CHO cells assessed as calcium mobilization measured after 30 mins by Fluo-4-AM dye based FLIPR assay; format: cell-based
T2 sequence (P47901 whole entry): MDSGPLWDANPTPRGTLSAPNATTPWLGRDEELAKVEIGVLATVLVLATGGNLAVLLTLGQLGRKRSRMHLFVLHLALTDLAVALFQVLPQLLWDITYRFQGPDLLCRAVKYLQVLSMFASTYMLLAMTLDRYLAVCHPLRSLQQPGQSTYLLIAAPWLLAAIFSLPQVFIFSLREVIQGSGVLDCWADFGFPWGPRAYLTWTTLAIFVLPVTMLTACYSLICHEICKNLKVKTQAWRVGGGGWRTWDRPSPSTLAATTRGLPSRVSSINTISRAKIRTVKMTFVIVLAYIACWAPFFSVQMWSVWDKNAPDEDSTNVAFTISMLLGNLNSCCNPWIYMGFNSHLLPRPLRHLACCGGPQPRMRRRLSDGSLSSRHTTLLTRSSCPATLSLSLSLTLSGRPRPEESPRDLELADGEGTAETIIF

[4] = species: Homo sapiens; test: Selectivity ratio of EC50 for human V1a receptor to EC50 for human OTR
[5] = species: Homo sapiens; test: Selectivity ratio of EC50 for human V1b receptor to EC50 for human OTR

| EC50 [1] | EC50 [2] | EC50 [3] | Ratio EC50 [4] | Ratio EC50 [5] | Compound |
| --- | --- | --- | --- | --- | --- |
| 0.021 nM | 4.2 nM | 0.17 nM | 200 | 8.1 | CC[C@H](C)[C@@H]1NC(=O)[C@H](Cc2ccc(O)cc2)NC(=O)CCSSC[C@@H](C(=O)N2CCC[C@H]2C(=O)N[C@@H](C)C(=O)NCC(N)=O)NC(=O)[C@H](CC(N)=O)NC(=O)[C@H](CCC(N)=O)NC1=O ([Mpa]YIQNCPAG-NH2; disulfide 1-6) |
| 0.054 nM | > 100 nM | 2.4 nM | > 1000 | 44 | CC[C@H](C)[C@@H]1NC(=O)[C@H](Cc2ccc(O)cc2)NC(=O)CCSSC[C@@H](C(=O)N2CCC[C@H]2C(=O)N[C@@H](Cc2ccccc2)C(=O)NCC(N)=O)NC(=O)[C@H](CC(N)=O)NC(=O)[C@H](CCC(N)=O)NC1=O ([Mpa]YIQNCPFG-NH2; disulfide 1-6) |
| 9.5 nM | > 100 nM | > 100 nM | > 10 | > 10 | CC[C@H](C)[C@@H]1NC(=O)[C@H](Cc2ccc(O)cc2)NC(=O)CCSSC[C@@H](C(=O)N2CCC[C@H]2C(=O)N[C@@H](CC(C)C)C(=O)N[C@@H](CCC(=O)O)C(N)=O)NC(=O)[C@H](CC(N)=O)NC(=O)[C@H](CCC(N)=O)NC1=O ([Mpa]YIQNCPLE-NH2; disulfide 1-6) |
| 1.6 nM | > 100 nM | > 100 nM | > 10 | > 10 | CC[C@H](C)[C@@H]1NC(=O)[C@H](Cc2ccc(O)cc2)NC(=O)CCSSC[C@@H](C(=O)N2CCC[C@H]2C(=O)N[C@@H](CC(C)C)C(=O)N[C@@H](Cc2ccccc2)C(N)=O)NC(=O)[C@H](CC(N)=O)NC(=O)[C@H](CCC(N)=O)NC1=O ([Mpa]YIQNCPLF-NH2; disulfide 1-6) |
| 1.6 nM | > 100 nM | > 100 nM | > 10 | > 10 | CC[C@H](C)[C@@H]1NC(=O)[C@H](Cc2ccc(O)cc2)NC(=O)CCSSC[C@@H](C(=O)N2CCC[C@H]2C(=O)N[C@@H](CC(C)C)C(=O)N[C@@H](CC(C)C)C(N)=O)NC(=O)[C@H](CC(N)=O)NC(=O)[C@H](CCC(N)=O)NC1=O ([Mpa]YIQNCPLL-NH2; disulfide 1-6) |
| 0.53 nM | > 100 nM | > 100 nM | > 100 | > 100 | CC[C@H](C)[C@@H]1NC(=O)[C@H](Cc2ccc(O)cc2)NC(=O)CCSSC[C@@H](C(=O)N2CCC[C@H]2C(=O)N[C@@H](CC(C)C)C(=O)N[C@@H](CCCNC(=N)N)C(N)=O)NC(=O)[C@H](CC(N)=O)NC(=O)[C@H](CCC(N)=O)NC1=O ([Mpa]YIQNCPLR-NH2; disulfide 1-6) |
| 0.056 nM | > 100 nM | 0.65 nM | > 1000 | 12 | CC[C@H](C)[C@@H]1NC(=O)[C@H](Cc2ccc(O)cc2)NC(=O)CCSSC[C@@H](C(=O)N2CCC[C@H]2C(=O)N[C@@H](CO)C(=O)NCC(N)=O)NC(=O)[C@H](CC(N)=O)NC(=O)[C@H](CCC(N)=O)NC1=O ([Mpa]YIQNCPSG-NH2; disulfide 1-6) |
| 0.014 nM | 5.1 nM | 1.3 nM | 360 | 93 | CC[C@H](C)[C@@H]1NC(=O)[C@H](Cc2ccc(O)cc2)NC(=O)CCSSC[C@@H](C(=O)N2CCC[C@H]2C(=O)N[C@H](C(=O)NCC(N)=O)C(C)C)NC(=O)[C@H](CC(N)=O)NC(=O)[C@H](CCC(N)=O)NC1=O ([Mpa]YIQNCPVG-NH2; disulfide 1-6) |
| 1.5 nM | > 100 nM | > 100 nM | > 10 | > 10 | CC[C@H](C)[C@@H]1NC(=O)[C@H](Cc2ccc(O)cc2)NC(=O)CCSSC[C@@H](C(=O)N[C@@H](CCCNC(=N)N)C(=O)N[C@@H](CC(C)C)C(=O)NCC(N)=O)NC(=O)[C@H](CC(N)=O)NC(=O)[C@H](CCC(N)=O)NC1=O ([Mpa]YIQNCRLG-NH2; disulfide 1-6) |
| 1.2 nM | > 100 nM | 9 nM | > 10 | 7.5 | CC[C@H](C)[C@@H]1NC(=O)[C@H](Cc2ccc(O)cc2)NC(=O)CCSSC[C@@H](C(=O)N2CCC[C@H]2C(=O)N[C@@H](CC(C)C)C(=O)NCC(N)=O)NC(=O)[C@H](CC(N)=O)NC(=O)[C@H](CCCNC(=N)N)NC1=O ([Mpa]YIRNCPLG-NH2; disulfide 1-6) |
| 0.072 nM | > 100 nM | 8.9 nM | > 1000 | 120 | CC[C@H](C)[C@@H]1NC(=O)[C@H](Cc2ccc(O)cc2)NC(=O)CCSSC[C@@H](C(=O)N2CCC[C@H]2C(=O)N[C@@H](CC(C)C)C(=O)NCC(N)=O)NC(=O)[C@H](CC(N)=O)NC(=O)[C@H](CO)NC1=O ([Mpa]YISNCPLG-NH2; disulfide 1-6) |
| 0.19 nM | > 100 nM | 3.9 nM | > 100 | 21 | CC(C)C[C@@H]1NC(=O)[C@H](Cc2ccc(O)cc2)NC(=O)CCSSC[C@@H](C(=O)N2CCC[C@H]2C(=O)N[C@@H](CC(C)C)C(=O)NCC(N)=O)NC(=O)[C@H](CC(N)=O)NC(=O)[C@H](CCC(N)=O)NC1=O ([Mpa]YLQNCPLG-NH2; disulfide 1-6) |

| Compound | EC50 [1] | EC50 [2] | EC50 [3] | Ratio EC50 [4] | Ratio EC50 [5] |
| --- | --- | --- | --- | --- | --- |
| CC[C@H](C)[C@@H]1NC(=O)[C@H](Cc2ccc(O)cc2)NC(=O)CCSSC[C@@H](C(=O)N2CCC[C@H]2C(=O)N[C@@H](CCC(=O)O)C(=O)NCC(N)=O)NC(=O)[C@H](CC(N)=O)NC(=O)[C@H](CCC(N)=O)NC1=O ([Mpa]YIQNCPEG-NH2; disulfide 1-6) | 0.25 nM | > 100 nM | > 100 nM | > 100 | > 100 |
| CC[C@H](C)[C@@H]1NC(=O)[C@H](Cc2ccc(O)cc2)NC(=O)CCSSC[C@@H](C(=O)N2CCC[C@H]2C(=O)N[C@@H](CC(C)C)C(=O)N[C@@H](C)C(N)=O)NC(=O)[C@H](CC(N)=O)NC(=O)[C@H](CCC(N)=O)NC1=O ([Mpa]YIQNCPLA-NH2; disulfide 1-6) | 1.4 nM | > 100 nM | > 100 nM | > 10 | > 10 |
| CC[C@H](C)[C@@H]1NC(=O)[C@H](Cc2ccc(O)cc2)NC(=O)CCSSC[C@@H](C(=O)N2CCC[C@H]2C(=O)N[C@@H](CCCNC(=N)N)C(=O)NCC(N)=O)NC(=O)[C@H](CC(N)=O)NC(=O)[C@H](CCC(N)=O)NC1=O ([Mpa]YIQNCPRG-NH2; disulfide 1-6) | 0.03 nM | 0.12 nM | 0.034 nM | 4 | 1.1 |
| CC[C@H](C)[C@@H]1NC(=O)[C@H](Cc2ccc(O)cc2)NC(=O)CCSSC[C@@H](C(=O)N[C@@H](CO)C(=O)N[C@@H](CC(C)C)C(=O)NCC(N)=O)NC(=O)[C@H](CC(N)=O)NC(=O)[C@H](CCC(N)=O)NC1=O ([Mpa]YIQNCSLG-NH2; disulfide 1-6) | 0.082 nM | > 100 nM | > 100 nM | > 1000 | > 1000 |
| CC[C@H](C)[C@@H]1NC(=O)[C@H](Cc2ccc(O)cc2)NC(=O)CCSSC[C@@H](C(=O)N(C)[C@@H](C)C(=O)N[C@@H](CC(C)C)C(=O)NCC(N)=O)NC(=O)[C@H](CC(N)=O)NC(=O)[C@H](CCC(N)=O)NC1=O ([Mpa]YIQNC[NMeA]LG-NH2; disulfide 1-6) | 0.11 nM | > 100 nM | > 100 nM | > 100 | > 100 |
| CC[C@H](C)[C@@H]1NC(=O)[C@H](Cc2ccc(O)cc2)NC(=O)CCSSC[C@@H](C(=O)N(C)[C@@H](CO)C(=O)N[C@@H](CC(C)C)C(=O)NCC(N)=O)NC(=O)[C@H](CC(N)=O)NC(=O)[C@H](CCC(N)=O)NC1=O ([Mpa]YIQNC[NMeS]LG-NH2; disulfide 1-6) | 0.042 nM | > 100 nM | > 100 nM | > 1000 | > 1000 |
| CC[C@H](C)[C@@H]1NC(=O)[C@H](Cc2ccc(O)cc2)NC(=O)CCSSC[C@@H](C(=O)N(C)CC(=O)N[C@@H](CC(C)C)C(=O)NCC(N)=O)NC(=O)[C@H](CC(N)=O)NC(=O)[C@H](CCC(N)=O)NC1=O ([Mpa]YIQNC[Sar]LG-NH2; disulfide 1-6) | 0.0069 nM | > 100 nM | > 100 nM | > 10000 | > 10000 |
| CC[C@H](C)[C@@H]1NC(=O)[C@H](Cc2ccc(O)cc2)NC(=O)CCSSC[C@@H](C(=O)N2CCC[C@H]2C(=O)N[C@@H](CC(C)C)C(=O)NCC(N)=O)NC(=O)[C@H](CO)NC(=O)[C@H](CCC(N)=O)NC1=O ([Mpa]YIQSCPLG-NH2; disulfide 1-6) | 12 nM | > 100 nM | > 100 nM | > 8 | > 8 |
